The subject of experiment [1] is Mycobacterium tuberculosis. Description: Inhibition of Mycobacterium tuberculosis triacylglycerol lipase LipY at 20 molar excess compound concentration preincubated with enzyme measured after 30 mins by pH-stat technique relative to control.
The subject of experiment [2] is Mycobacterium tuberculosis. Kind of experiment: Inhibition of Mycobacterium tuberculosis monoacylglycerol lipase Rv0183 preincubated with enzyme measured after 30 mins by pH-stat technique.
Experiment [3] has as its target T1, Cutinase 1 (Fusarium vanettenii) (UniProt P00590).
T1 sequence (whole entry): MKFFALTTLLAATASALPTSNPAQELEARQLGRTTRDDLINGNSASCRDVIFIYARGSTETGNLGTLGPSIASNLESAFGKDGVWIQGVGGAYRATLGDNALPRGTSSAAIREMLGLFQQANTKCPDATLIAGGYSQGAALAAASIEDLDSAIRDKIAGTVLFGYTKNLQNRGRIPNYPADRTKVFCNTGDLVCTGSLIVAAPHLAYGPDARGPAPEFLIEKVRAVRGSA
Kind of experiment: Inhibition of Fusarium solani pisi cutinase at 20 molar excess compound concentration preincubated with enzyme measured after 30 mins by pH-stat technique relative to control.

The target in experiment [4] is T1, Cutinase 1 (Fusarium vanettenii). Description: Inhibition of Fusarium solani pisi cutinase preincubated with enzyme measured after 30 mins by pH-stat technique.
Experiment [5] has as its system Mycobacterium tuberculosis. Description: Inhibition of Mycobacterium tuberculosis triacylglycerol lipase LipY preincubated with enzyme measured after 30 mins by pH-stat technique.
Experiment [6] relates to Mycobacterium tuberculosis. Description: Inhibition of Mycobacterium tuberculosis monoacylglycerol lipase Rv0183 at 20 molar excess compound concentration preincubated with enzyme measured after 30 mins by pH-stat technique relative to control.

The structures appear in SMILES notation.

As to `CCCCCCCCCC[C@H]1CC[P@@](=O)(OC)OC(C)=C1C(=O)OC`, the inhibition (usually the percentage by which the read-out fell short of the control) in experiment [1] turned out to be 39.8%; in experiment [3], 22.5%; in experiment [6] it was 78.7%. Moreover, the figures for the XI50 in experiment [2], in experiment [4] and in experiment [5] were 11.3 molar excess, 97.3 molar excess and 25.9 molar excess, respectively.
Consider `CCCCCCCCCC[C@@H]1CC[P@@](=O)(OC)OC(C)=C1C(=O)OC`, for which the inhibition is 82.8% in experiment [1], 91.8% in experiment [3] and 87.7% in experiment [6]. In addition, the results for the XI50 in experiment [2], in experiment [4] and in experiment [5] were 7.61 molar excess, 3.38 molar excess and 1.64 molar excess, respectively.
For `CCCCCCCCCC[C@@H]1CC[P@](=O)(OC)OC(C)=C1C(=O)OC`, the inhibition was 49.6% in experiment [1], 86.5% in experiment [3] and 93.1% in experiment [6]. Also, the figures for the XI50 in experiment [2], in experiment [4] and in experiment [5] were 1.24 molar excess, 4.07 molar excess and 15.4 molar excess, respectively.
For `CCCCCCCCCC[C@H]1CC[P@](=O)(OC)OC(C)=C1C(=O)OC`, the inhibition amounted to 42.1% in experiment [1], 93.2% in experiment [3] and 96.6% in experiment [6]. The XI50 in experiment [2] was determined as 1.16 molar excess; in experiment [4], 2.52 molar excess; in experiment [5] it was 20 molar excess.
